Experimental data: patent US6852737B2 (Recordati Ireland Limited, priority 2001, dated 2005)
Values joined by “and” are separate entries in the source; they are usually repeats but may differ in a detail not shown here. Identical values can stand only once. “Also recorded” adds a separate entry of the source. Counter-ions that a name gives are not always drawn. Marks after values point to notes of the source that are not given here.

How the values were obtained:
[1] = Hygroscopicity (DVS analysis); assay type: physicochemical; conditions: 25° C.
Method: The hygroscopicity of both crystalline Forms (I) and (II) was measured with DVS analysis by means of a water absorption analyzer (SURFACE MEASUREMENT SYSTEM, Marion, Buckinghamshire, UK) according to the following working conditions: […]

[2] = Stability of crystalline forms; assay type: physicochemical; conditions: hydrochloride
[3] = Bioavailability of crystalline forms in dog; assay type: in vivo, Beagle dogs
Method: A study was carried out on six Beagle dogs to evaluate the bioavailability of crystalline Forms (I) and (II).
Blood samples were taken at given times and plasma concentrations of lercanidipine were determined with a stereoselective analytical method HPLC-MS/MS, according to the following working conditions;
Lercanidipine was extracted from dog plasma by means of a liquid-liquid extraction with a mixture of n-hexane and ethyl ether. The dry residue of the organic phase was taken up with a mixture of methanol and water and a liquid-phase chromatographic separation (LC) was carried out; the two enantiomers of lercanidipine were separated on a CHIROBIOTIC V column (Vancomycin) (particle size […], column size 150×4.6 mm (ASTEC, NJ, USA)) and were detected with a mass spectrometer (MS/MS) by using an electrospray technique.
The analytical method was validated in a concentration range between 0.1 and 20 ng/ml of plasma for both enantiomers. The method has shown to be specific with an accuracy of 15%. The average concentrations of lercanidipine in the tables represent the sum of both enantiomers.

[4] = Relative bioavailability in man; assay type: in vivo; conditions: for AUC0−t, geom. least square mean / Cmax, geom. least square mean / tmax, median / bioequivalence to Form I: 10 mg tablet; for AUC0−t, geom. least square mean / Cmax, geom. least square mean / tmax, median / time of maximum concentration (tmax) compared to the other crystalline form: single dose; for AUC0−t, geom. least square mean: 16 volunteers; for AUC0−t, geom. least square mean / Cmax, geom. least square mean / tmax, median / time of maximum concentration (tmax) compared to the other crystalline form / bioequivalence to Form I: hydrochloride
Method: Blood samples were taken at 15 points from time 0 to 24 h post-dosing and plasma concentrations of lercanidipine were determined with a stereoselective analytical method HPLC-MS/MS as described in Example 19a, as validated for man at the same concentration intervals.

[5] = oral administration; cited from earlier work
isolated rat aorta = conditions: drug removed from the environment of the aortic tissue for 6 hours; cited from earlier work
[6] = 0 h, Mean (dog 2 not included), oral 3 mg/kg
[7] = 0.5 h, Dog 1, oral 3 mg/kg, hydrochloride, 3 mg/kg
[8] = 0.5 h, Dog 3, oral 3 mg/kg, hydrochloride, 3 mg/kg
[9] = 0.5 h, Mean (dog 2 not included), oral 3 mg/kg, hydrochloride, 3 mg/kg
[10] = 1 h, Dog 1, oral 3 mg/kg, hydrochloride, 3 mg/kg
[11] = 1 h, Dog 3, oral 3 mg/kg, hydrochloride, 3 mg/kg
[12] = 1 h, Dog 4, oral 3 mg/kg, hydrochloride, 3 mg/kg
[13] = 1 h, Dog 5, oral 3 mg/kg, hydrochloride, 3 mg/kg
[14] = 1.5 h, Dog 4, oral 3 mg/kg, hydrochloride, 3 mg/kg
[15] = 1.5 h, Dog 6, oral 3 mg/kg, hydrochloride, 3 mg/kg
[16] = 6 h (last sampling time), Mean (dog 2 not included), oral 3 mg/kg, hydrochloride, 3 mg/kg
[17] = Dog 2, oral 3 mg/kg, hydrochloride, 3 mg/kg
[18] = Dog 3, oral 3 mg/kg, hydrochloride, 3 mg/kg
[19] = Dog 4, oral 3 mg/kg, hydrochloride, 3 mg/kg

With `COC(=O)C1=C(C)NC(C)=C(C(=O)OC(C)(C)CN(C)CCC(c2ccccc2)c2ccccc2)C1c1cccc([N+](=O)[O-])c1` (single isomer, unassigned) [Form (I), lercanidipine hydrochloride] the mass change ([1]; 0% RH) was −0.3%, the mass change ([1]; 95% RH) was “+0.15%” and the stability [2] was “good stability; also recorded: stable”. The “concentration in plasma of lercanidipine (S + R)” value (“concentration in plasma” for short) ([3]; 0 h, Dog 1, oral 3 mg/kg) was 0.00 ng/mL, the “concentration in plasma” value ([3]; 0 h, Dog 2, oral 3 mg/kg) was 0.00 ng/mL and the “concentration in plasma” value ([3]; 0 h, Dog 3, oral 3 mg/kg) was 0.00 ng/mL. For the same molecule, the “concentration in plasma” value ([3]; 0 h, Dog 4, oral 3 mg/kg) was 0.00 ng/mL, the “concentration in plasma” value ([3]; 0 h, Dog 5, oral 3 mg/kg) was 0.00 ng/mL and the “concentration in plasma” value ([3]; 0 h, Dog 6, oral 3 mg/kg) was 0.00 ng/mL. The “concentration in plasma” value [3, 6] was 0.00 ng/mL, the “concentration in plasma” value [3, 7] was 0.1 ng/mL and the “concentration in plasma” value ([3]; 0.5 h, Dog 2, oral 3 mg/kg, hydrochloride, 3 mg/kg) was 0.20 ng/mL. For the same molecule, the “concentration in plasma” value [3, 8] was 0.00 ng/mL, the “concentration in plasma” value ([3]; 0.5 h, Dog 4, oral 3 mg/kg) was 0.00 ng/mL and the “concentration in plasma” value ([3]; 0.5 h, Dog 5, oral 3 mg/kg) was 0.00 ng/mL. For the same molecule, the “concentration in plasma” value ([3]; 0.5 h, Dog 6, oral 3 mg/kg) was 0.00 ng/mL, the “concentration in plasma” value [3, 9] was 0.00 ng/mL and the “concentration in plasma” value [3, 10] was 0.59 ng/mL. For the same molecule, the “concentration in plasma” value ([3]; 1 h, Dog 2, oral 3 mg/kg, hydrochloride, 3 mg/kg) was 0.29 ng/mL, the “concentration in plasma” value [3, 11] was 0.00 ng/mL and the “concentration in plasma” value [3, 12] was 0.00 ng/mL. For the same molecule, the “concentration in plasma” value [3, 13] was 0.00 ng/mL, the “concentration in plasma” value ([3]; 1 h, Dog 6, oral 3 mg/kg) was 0.00 ng/mL and the “concentration in plasma” value ([3]; 1 h, Mean (dog 2 not included), oral 3 mg/kg, hydrochloride, 3 mg/kg) was 0.12 ng/mL. For the same molecule, the “concentration in plasma” value ([3]; 1.5 h, Dog 3, oral 3 mg/kg, hydrochloride, 3 mg/kg) was 0.32 ng/mL, the “concentration in plasma” value [3, 14] was 0.00 ng/mL and the “concentration in plasma” value [3, 15] was 0.00 ng/mL. For the same molecule, the “concentration in plasma” value ([3]; 1.5 h, Mean (dog 2 not included), oral 3 mg/kg, hydrochloride, 3 mg/kg) was 0.70 ng/mL, the “concentration in plasma” value ([3]; 2 h, Dog 3, oral 3 mg/kg, hydrochloride, 3 mg/kg) was 0.94 ng/mL and the “concentration in plasma” value ([3]; 2 h, Dog 4, oral 3 mg/kg, hydrochloride, 3 mg/kg) was 0.35 ng/mL. The “concentration in plasma” value ([3]; 2 h, Dog 6, oral 3 mg/kg, hydrochloride, 3 mg/kg) was 0.28 ng/mL, the “concentration in plasma” value ([3]; 3 h, Dog 3, oral 3 mg/kg, hydrochloride, 3 mg/kg) was 0.92 ng/mL and the “concentration in plasma” value [3, 16] was 8.5 ± 6.5 ng/mL and 8.50 ng/mL. The “concentration in plasma” value ([3]; 6 h, Dog 1, oral 3 mg/kg, hydrochloride, 3 mg/kg) was 0.80 ng/mL, the “concentration in plasma” value ([3]; 6 h, Dog 5, oral 3 mg/kg, hydrochloride, 3 mg/kg) was 9.73 ng/mL and the “concentration in plasma” value ([3]; 6 h, Dog 6, oral 3 mg/kg, hydrochloride, 3 mg/kg) was 17.83 ng/mL. It also gave a Tmax ([3]; Dog 1, oral 3 mg/kg, hydrochloride, 3 mg/kg) of 2.00 h, a Tmax [3, 17] of 4.00 h and a Tmax [3, 18] of 6.00 h. For the same molecule, the Tmax [3, 19] was 3.00 h, the Tmax ([3]; Dog 5, oral 3 mg/kg, hydrochloride, 3 mg/kg) was 3.00 h and the Tmax ([3]; Mean (n = 5, dog 2 not included), oral 3 mg/kg, hydrochloride, 3 mg/kg) was 4.00 h. The “AUC0−t, geom. least square mean” value [4] was 8.82 ng·h/mL, the “Cmax, geom. least square mean” value [4] was 3.18 ng/mL and the “tmax, median” value [4] was 1.50* h. The “time of maximum concentration (tmax) compared to the other crystalline form” value [4] was “shorter time”.

In the case of `COC(=O)C1=C(C)NC(C)=C(C(=O)OC(C)(C)CN(C)CCC(c2ccccc2)c2ccccc2)C1c1cccc([N+](=O)[O-])c1` (single isomer, unassigned) [Form (II), lercanidipine hydrochloride], the mass variation ([1]; whole RH range tested (0-95%)) is reported as < 0.05%, the stability [2] is reported as “good stability; also recorded: stable” and the “concentration in plasma” value ([3]; 0 h, Dog 1, oral 3 mg/kg) is reported as 0.00 ng/mL. The “concentration in plasma” value ([3]; 0 h, Dog 2, oral 3 mg/kg) was 0.00 ng/mL, the “concentration in plasma” value ([3]; 0 h, Dog 3, oral 3 mg/kg) was 0.00 ng/mL and the “concentration in plasma” value ([3]; 0 h, Dog 4, oral 3 mg/kg) was 0.00 ng/mL. The “concentration in plasma” value ([3]; 0 h, Dog 5, oral 3 mg/kg) was 0.00 ng/mL, the “concentration in plasma” value ([3]; 0 h, Dog 6, oral 3 mg/kg) was 0.00 ng/mL and the “concentration in plasma” value [3, 6] was 0.00 ng/mL. For the same molecule, the “concentration in plasma” value [3, 7] was 0.00 ng/mL, the “concentration in plasma” value [3, 8] was 6.99 ng/mL and the “concentration in plasma” value ([3]; 0.5 h, Dog 4, oral 3 mg/kg) was 0.00 ng/mL. For the same molecule, the “concentration in plasma” value ([3]; 0.5 h, Dog 5, oral 3 mg/kg) was 0.00 ng/mL, the “concentration in plasma” value ([3]; 0.5 h, Dog 6, oral 3 mg/kg) was 0.00 ng/mL and the “concentration in plasma” value [3, 9] was 1.40 ng/mL. The “concentration in plasma” value [3, 10] was 0.00 ng/mL, the “concentration in plasma” value [3, 11] was 16.61 ng/mL and the “concentration in plasma” value [3, 12] was 5.50 ng/mL. The “concentration in plasma” value [3, 13] was 3.28 ng/mL, the “concentration in plasma” value ([3]; 1 h, Dog 6, oral 3 mg/kg) was 0.00 ng/mL and the “concentration in plasma” value ([3]; 1.5 h, Dog 1, oral 3 mg/kg, hydrochloride, 3 mg/kg) was 0.23 ng/mL. The “concentration in plasma” value [3, 14] was 35.43 ng/mL, the “concentration in plasma” value [3, 15] was 3.49 ng/mL and the “concentration in plasma” value ([3]; 2 h, Dog 1, oral 3 mg/kg, hydrochloride, 3 mg/kg) was 7.63 ng/mL. The “concentration in plasma” value ([3]; 3 h, Dog 4, oral 3 mg/kg, hydrochloride, 3 mg/kg) was 28.36 ng/mL, the “concentration in plasma” value ([3]; 3 h, Dog 5, oral 3 mg/kg, hydrochloride, 3 mg/kg) was 40.57 ng/mL and the “concentration in plasma” value ([3]; 3 h, Dog 6, oral 3 mg/kg, hydrochloride, 3 mg/kg) was 14.10 ng/mL. The “concentration in plasma” value ([3]; 4 h, Dog 3, oral 3 mg/kg, hydrochloride, 3 mg/kg) was 14.10 ng/mL, the “concentration in plasma” value ([3]; 4 h, Dog 5, oral 3 mg/kg, hydrochloride, 3 mg/kg) was 23.66 ng/mL and the “concentration in plasma” value [3, 16] was 10.9 ± 6.8 ng/mL. The “concentration in plasma” value ([3]; 6 h, Dog 2, oral 3 mg/kg, hydrochloride, 3 mg/kg) was 4.50 ng/mL, the Tmax [3, 17] was 1.50 h and the Cmax [3, 18] was 19.78 ng/mL. For the same molecule, the Cmax [3, 19] was 52.64 ng/mL, the Cmax ([3]; Dog 6, oral 3 mg/kg, hydrochloride, 3 mg/kg) was 18.56 ng/mL and the “bioequivalence to Form I” value [4] was “not bioequivalent”. For the same molecule, the “bioequivalence to Form I” value ([4]; listed as Form II) was “non equivalent”, the “AUC0−t, geom. least square mean” value [4] was 10.36 ng·h/mL and the “Cmax, geom. least square mean” value [4] was 3.22 ng/mL. The “tmax, median” value [4] was 2.50* h, the “tmax Point Estimate (T/R), median difference” value ([4]; T = Form (II) tablet, R = Form (I) tablet (Zanedip 10 mg)) was 0.75** h and the “time of maximum concentration (tmax) compared to the other crystalline form” value [4] was “delayed”.

In the case of `COC(=O)C1=C(C)NC(C)=C(C(=O)OC(C)(C)CN(C)CCC(c2ccccc2)c2ccccc2)C1c1cccc([N+](=O)[O-])c1` (stereo not drawn) [Lercanidipine, methyl 1,1,N-trimethyl-N-(3,3-diphenylpropyl)-2-aminoethyl 1,4-dihydro-2,6-dimethyl-4-(3-nitrophenyl)pyridine-3,5-dicarboxylate], the “time of peak plasma levels following dosing” value [5] is given as 2 to 3 h and the “response to high K+ after the drug has been removed” value (isolated rat aorta) is given as “attenuated”.
